Laboratory results from article PMC8001353, “Tryptophanol-Derived Oxazolopyrrolidone Lactams as Potential Anticancer Agents against Gastric Adenocarcinoma” (Pharmaceuticals, 2021).

Test system: human gastric adenocarcinoma (AGS) cell line
Test: MTT reduction assay, cell viability / cytotoxicity in AGS cell line
Format: cell-based
Conditions: AGS cell line, cell viability, MTT, 48 h incubation, mean ± SD; for viability at 50 µM: Homo sapiens, read-out: % CV at 50 µM
Experimental: The cytotoxicity was assessed in different cell lines with the endpoint MTT, using previously reported procedure. The following cells were obtained from the American Type Culture Collection: human embryonic kidney epithelial cell line (HEK 293T, ATCC HBT-22™), breast cancer cell line (MDA-MB-231, ATCC HTB-26™), osteosarcoma cell line (MG-63, ATCC CRL-1427™), gastric adenocarcinoma cell line (AGS, ATTC CRL-1739TM), prostate cancer cell line (DU-145, ATTC HTB-81™), and lung carcinoma cell line (A-549, ATCC CCL-185™). All cell lines were seeded at 2 × 10^4 cells/well with exception of A-549 cell line, which was seeded at 5 × 10^3 cells/well.

SMILES | % CV at 100 µM [%] | viability at 50 µM [%]
O=C1CC[C@]2(c3ccccc3)OC[C@@H](Cc3c[nH]c4ccccc34)N12 [Compound 7a, (3R,7aR)-3-((1H-indol-3-yl)methyl)-7a-phenyltetrahydropyrrolo[2,1-b]oxazol-5(6H)-one] | 50 ± 5 | 
O=C1CC[C@]2(c3ccc(F)cc3)OC[C@@H](Cc3c[nH]c4ccccc34)N12 [Compound 7b, (3R,7aR)-3-((1H-indol-3-yl)methyl)-7a-(4-fluorophenyl)tetrahydropyrrolo[2,1-b]oxazol-5(6H)-one] | 50 ± 8 | 
O=C1CC[C@]2(c3ccc(Cl)cc3)OC[C@@H](Cc3c[nH]c4ccccc34)N12 [Compound 7c, (3R,7aR)-3-((1H-indol-3-yl)methyl)-7a-(4-chlorophenyl)tetrahydropyrrolo[2,1-b]oxazol-5(6H)-one] | 6 ± 1 | 11 ± 1
O=C1CC[C@]2(c3ccc(Br)cc3)OC[C@@H](Cc3c[nH]c4ccccc34)N12 [Compound 7d, (3R,7aR)-3-((1H-indol-3-yl)methyl)-7a-(4-bromophenyl)tetrahydropyrrolo[2,1-b]oxazol-5(6H)-one] | 14 ± 3 | 
Cc1ccc([C@]23CCC(=O)N2[C@H](Cc2c[nH]c4ccccc24)CO3)cc1 [Compound 7e, (3R,7aR)-3-((1H-indol-3-yl)methyl)-7a-(p-tolyl)tetrahydropyrrolo[2,1-b]oxazol-5(6H)-one] | 14 ± 2 | 
COc1ccc([C@]23CCC(=O)N2[C@H](Cc2c[nH]c4ccccc24)CO3)cc1 [Compound 7f, (3R,7aR)-3-((1H-indol-3-yl)methyl)-7a-(4-methoxyphenyl)tetrahydropyrrolo[2,1-b]oxazol-5(6H)-one] | 18 ± 2 | 
CS(=O)(=O)c1ccc([C@]23CCC(=O)N2[C@H](Cc2c[nH]c4ccccc24)CO3)cc1 [Compound 7g, (3R,7aR)-3-((1H-indol-3-yl)methyl)-7a-(4-(methylsulfonyl)phenyl)tetrahydropyrrolo[2,1-b]oxazol-5(6H)-one] | 94 ± 12 | 
Cc1ccc([C@]23CCC(=O)N2[C@H](Cc2c[nH]c4ccccc24)CO3)cc1Cl [Compound 7h, (3R,7aR)-3-((1H-indol-3-yl)methyl)-7a-(3-chloro-4-methylphenyl)tetrahydropyrrolo[2,1-b]oxazol-5(6H)-one] |  | 11 ± 2
COc1ccc([C@]23CCC(=O)N2[C@H](Cc2c[nH]c4ccccc24)CO3)cc1F [Compound 7i, (3R,7aR)-3-((1H-indol-3-yl)methyl)-7a-(3-fluoro-4-methoxyphenyl)tetrahydropyrrolo[2,1-b]oxazol-5(6H)-one] |  | 84 ± 7
CC1CC(=O)N2C(Cc3c[nH]c4ccccc34)COC12c1ccc(Cl)cc1 (stereo not drawn) [Compound 7j] |  | 8
CCn1cc(C[C@@H]2CO[C@@]3(c4ccc(Cl)cc4)CCC(=O)N23)c2ccccc21 [Compound 7k, (3R,7aR)-7a-(4-chlorophenyl)-3-((1-ethyl-1H-indol-3-yl)methyl)tetrahydropyrrolo[2,1-b]oxazol-5(6H)-one] |  | 40 ± 5
CC(=O)n1cc(C[C@@H]2CO[C@@]3(c4ccc(Cl)cc4)CCC(=O)N23)c2ccccc21 [Compound 7l, (3R,7aR)-3-((1-acetyl-1H-indol-3-yl)methyl)-7a-(4-chlorophenyl)tetrahydropyrrolo[2,1-b]oxazol-5(6H)-one] |  | 63 ± 13
CC(C)(C)OC(=O)n1cc(C[C@@H]2CO[C@@]3(c4ccc(Cl)cc4)CCC(=O)N23)c2ccccc21 [Compound 7m, tert-butyl 3-(((3R,7aR)-7a-(4-chlorophenyl)-5-oxohexahydropyrrolo[2,1-b]oxazol-3-yl)methyl)-1H-indole-1-carboxylate] |  | 61 ± 9
O=C1CC[C@]2(c3ccc(-c4ccc(Cl)cc4)cc3)OC[C@@H](Cc3c[nH]c4ccccc34)N12 [Compound 7n, (3R,7aR)-3-((1H-indol-3-yl)methyl)-7a-(4’-chloro-[1,1’-biphenyl]-4-yl)tetrahydropyrrolo[2,1-b]oxazol-5(6H)-one] |  | 65 ± 13
O=C1CC[C@]2(c3ccc(-c4ccc(O)cc4)cc3)OC[C@@H](Cc3c[nH]c4ccccc34)N12 [Compound 7p, (3R,7aR)-3-((1H-indol-3-yl)methyl)-7a-(4’-hydroxy-[1,1’-biphenyl]-4-yl)tetrahydropyrrolo[2,1-b]oxazol-5(6H)-one] |  | 56 ± 1
O=C1CC[C@]2(c3ccc(-c4ccc(CO)cc4)cc3)OC[C@@H](Cc3c[nH]c4ccccc34)N12 [Compound 7q, (3R,7aR)-3-((1H-indol-3-yl)methyl)-7a-(4’-(hydroxymethyl)-[1,1’-biphenyl]-4-yl)tetrahydropyrrolo[2,1-b]oxazol-5(6H)-one] |  | 55 ± 1
O=C1CC[C@]2(c3ccc(-c4cccc(Cl)c4)cc3)OC[C@@H](Cc3c[nH]c4ccccc34)N12 [Compound 7r, (3R,7aR)-3-((1H-indol-3-yl)methyl)-7a-(3’-chloro-[1,1’-biphenyl]-4-yl)tetrahydropyrrolo[2,1-b]oxazol-5(6H)-one] |  | 17 ± 1
O=C1CC[C@]2(c3ccc(-c4ccncc4)cc3)OC[C@@H](Cc3c[nH]c4ccccc34)N12 [Compound 7t, (3R,7aR)-3-((1H-indol-3-yl)methyl)-7a-(4-(pyridin-4-yl)phenyl)tetrahydropyrrolo[2,1-b]oxazol-5(6H)-one] |  | 75 ± 14
O=C1CC[C@]2(c3ccc(-c4ccc5c(c4)OCCO5)cc3)OC[C@@H](Cc3c[nH]c4ccccc34)N12 [Compound 7u, (3R,7aR)-3-((1H-indol-3-yl)methyl)-7a-(4-(2,3-dihydrobenzo[b][1, 4]dioxin-6-yl)phenyl)tetrahydropyrrolo[2,1-b]oxazol-5(6H)-one] |  | 67 ± 6
O=C1CC[C@@]2(c3ccccc3)OC[C@H](Cc3c[nH]c4ccccc34)N12 [Compound 8a, (3S,7aS)-3-((1H-indol-3-yl)methyl)-7a-phenyltetrahydropyrrolo[2,1-b]oxazol-5(6H)-one] | 58 ± 4 | 
O=C1CC[C@@]2(c3ccc(F)cc3)OC[C@H](Cc3c[nH]c4ccccc34)N12 [Compound 8b, (3S,7aS)-3-((1H-indol-3-yl)methyl)-7a-(4-fluorophenyl)tetrahydropyrrolo[2,1-b]oxazol-5(6H)-one] | 22 ± 4 | 
O=C1CC[C@@]2(c3ccc(Cl)cc3)OC[C@H](Cc3c[nH]c4ccccc34)N12 [Compound 8c, (3S,7aS)-3-((1H-indol-3-yl)methyl)-7a-(4-chlorophenyl)tetrahydropyrrolo[2,1-b]oxazol-5(6H)-one] | 11 ± 1 | 
O=C1CC[C@@]2(c3ccc(Br)cc3)OC[C@H](Cc3c[nH]c4ccccc34)N12 [Compound 8d, (3S,7aS)-3-((1H-indol-3-yl)methyl)-7a-(4-bromophenyl)tetrahydropyrrolo[2,1-b]oxazol-5(6H)-one] | 25 ± 4 | 
Cc1ccc([C@@]23CCC(=O)N2[C@@H](Cc2c[nH]c4ccccc24)CO3)cc1 [Compound 8e, (3S,7aS)-3-((1H-indol-3-yl)methyl)-7a-(p-tolyl)tetrahydropyrrolo[2,1-b]oxazol-5(6H)-one] | 60 ± 3 | 
COc1ccc([C@@]23CCC(=O)N2[C@@H](Cc2c[nH]c4ccccc24)CO3)cc1 [Compound 8f, (3S,7aS)-3-((1H-indol-3-yl)methyl)-7a-(4-methoxyphenyl)tetrahydropyrrolo[2,1-b]oxazol-5(6H)-one] | 30 ± 4 | 
CS(=O)(=O)c1ccc([C@@]23CCC(=O)N2[C@@H](Cc2c[nH]c4ccccc24)CO3)cc1 [Compound 8g, (3S,7aS)-3-((1H-indol-3-yl)methyl)-7a-(4-(methylsulfonyl)phenyl)tetrahydropyrrolo[2,1-b]oxazol-5(6H)-one] | 91 ± 11 | 
